Measured values published in patent US20120053053A1, “PYRIMIDINE DERIVATIVES AND THEIR USE AS HERBICIDES” (SYNGENTA CROP PROTECTION, LLC, priority 2009, published 2012).

Legend:
Solanum nigrum (SOLNI) [1] = experiment: Pre-emergence biological efficacy (percentage damage); assay type: in vivo; conditions: Solanum nigrum, 312 h, evaluated after 13 days, 100=total damage, 0=no damage; for pest or weed control at 1000 g/ha: dose 1,000 g/ha
Method in brief: (§1)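 Pre-emergence test: seeds sown in standard soil in pots, kept one day in a glasshouse (24/16° C. day/night, 14 h light, 65% humidity), then sprayed at 250 or 1000 g/ha from an acetone/water (50:50) formulation with 0.5% Tween 20. Damage scored after 13 days (0 = none, 100 = total).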

[2] = tested on: Amaranthus retoflexus (AMARE); experiment: as above; assay type: in vivo; conditions: Amaranthus retroflexus, 312 h, evaluated after 13 days, 100=total damage, 0=no damage; for pest or weed control at 1000 g/ha: dose 1,000 g/ha
Method in brief: as §1

[3] = tested on: Ipomea hederaceae (IPOHE); experiment: as above; assay type: in vivo; conditions: Ipomoea hederacea, 312 h, evaluated after 13 days, 100=total damage, 0=no damage; for pest or weed control at 1000 g/ha: dose 1,000 g/ha
Method in brief: as §1

Setaria faberi (SETFA) [4] = experiment: as above; assay type: in vivo; conditions: Setaria faberi, 312 h, evaluated after 13 days, 100=total damage, 0=no damage; for pest or weed control at 1000 g/ha: dose 1,000 g/ha
Method in brief: as §1

[5] = tested on: Echinochloa crus-galli (ECHCG); experiment: as above; assay type: in vivo; conditions: Echinochloa crus-galli, 312 h, evaluated after 13 days, 100=total damage, 0=no damage; for pest or weed control at 1000 g/ha: dose 1,000 g/ha
Method in brief: as §1

[6] = tested on: Alopecurus myosuroides (ALOMY); experiment: as above; assay type: in vivo; conditions: Alopecurus myosuroides, 312 h, evaluated after 13 days, 100=total damage, 0=no damage; for pest or weed control at 1000 g/ha: dose 1,000 g/ha
Method in brief: as §1

Solanum nigrum (SOLNI) [7] = experiment: Post-emergence biological efficacy (percentage damage); assay type: in vivo; conditions: Solanum nigrum, 312 h, evaluated after 13 days, 100=total damage, 0=no damage; for pest or weed control at 1000 g/ha: dose 1,000 g/ha
Method in brief: (§2)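 Pot-grown plants are cultivated 8 days under glasshouse conditions (24/16 °C, 14 h light, 65% humidity), sprayed at a dose of 250 or 1000 g/ha, kept under the same conditions with twice-daily watering, and rated for damage after 13 days.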

[8] = tested on: Amaranthus retoflexus (AMARE); experiment: as above; assay type: in vivo; conditions: Amaranthus retroflexus, 312 h, evaluated after 13 days, 100=total damage, 0=no damage; for pest or weed control at 1000 g/ha: dose 1,000 g/ha
Method in brief: as §2

[9] = tested on: Ipomea hederaceae (IPOHE); experiment: as above; assay type: in vivo; conditions: Ipomoea hederacea, 312 h, evaluated after 13 days, 100=total damage, 0=no damage; for pest or weed control at 1000 g/ha: dose 1,000 g/ha
Method in brief: as §2

Setaria faberi (SETFA) [10] = experiment: as above; assay type: in vivo; conditions: Setaria faberi, 312 h, evaluated after 13 days, 100=total damage, 0=no damage; for pest or weed control at 1000 g/ha: dose 1,000 g/ha
Method in brief: as §2

[11] = tested on: Echinochloa crus-galli (ECHCG); experiment: as above; assay type: in vivo; conditions: Echinochloa crus-galli, 312 h, evaluated after 13 days, 100=total damage, 0=no damage; for pest or weed control at 1000 g/ha: dose 1,000 g/ha
Method in brief: as §2

[12] = tested on: Alopecurus myosuroides (ALOMY); experiment: as above; assay type: in vivo; conditions: Alopecurus myosuroides, 312 h, evaluated after 13 days, 100=total damage, 0=no damage; for pest or weed control at 1000 g/ha: dose 1,000 g/ha
Method in brief: as §2

SMILES | pest or weed control at 1000 g/ha (Solanum nigrum (SOLNI) [1]) | pest or weed control at 1000 g/ha [2] | pest or weed control at 1000 g/ha [3] | pest or weed control at 1000 g/ha (Setaria faberi (SETFA) [4]) | pest or weed control at 1000 g/ha [5] | pest or weed control at 1000 g/ha [6] | pest or weed control at 1000 g/ha (Solanum nigrum (SOLNI) [7]) | pest or weed control at 1000 g/ha [8] | pest or weed control at 1000 g/ha [9] | pest or weed control at 1000 g/ha (Setaria faberi (SETFA) [10]) | pest or weed control at 1000 g/ha [11] | pest or weed control at 1000 g/ha [12] | melting point | further results
COC(=O)c1nc(C2CC2)nc(N)c1C [Compound 2-41] | 50% | 70% | 60% | 30% | 20% | 20% | 90% | 100% | 100% | 80% | 60% | 40% | 152 to 153 °C | –
C=Cc1c(C(=O)OC)nc(C2CC2)nc1[S+](C)[O-] (centres unmarked) [Compound 2-401, 2-cyclopropyl-5-ethenyl-6-methoxycarbonyl-4-methylsulphinyl-pyrimidine] | 10% | 70% | 70% | 0% | 0% | 0% | 80% | 70% | 70% | 0% | 0% | 0% | 74 to 75 °C | –
C=Cc1c(OC)nc(-c2ccc(Cl)c(OC)c2F)nc1C(=O)OC [Compound 27-398, 2-(4-chloro-2-fluoro-3-methoxyphenyl)-5-ethenyl-4-methoxy-6-methoxycarbonyl-pyrimidine] | 0% | 0% | 0% | 0% | 0% | 0% | 20% | 0% | 40% | 0% | 0% | 0% | 107 to 108 °C | –
COC(=O)c1nc(-c2ccc(Cl)c(N(C)C)c2F)nc(N)c1C1CC1 [Compound 33-58, 4-amino-2-(4-chloro-3-dimethylamino-2-fluorophenyl)-5-cyclopropyl-6-methoxycarbonylpyrimidine] | 0% | 0% | 0% | 0% | 0% | 0% | 10% | 10% | 0% | 60% | 10% | 10% | 156 to 158 °C | –
C=Cc1c(N)nc(-c2ccc(C)cc2)nc1C(=O)OC [Compound 36-61, 4-amino-5-ethenyl-6-methoxycarbonyl-2-(4-methylphenyl)-pyrimidine] | 100% | 100% | 100% | 80% | 90% | 70% | 80% | 100% | 90% | 80% | 90% | 70% | 122 to 123 °C | –
C=Cc1c(N)nc(-c2ccc(C#N)cc2)nc1C(=O)OC [Compound 68-61, 4-Amino-2-(4-cyanophenyl)-5-ethenyl-6-methoxycarbonyl-pyrimidine] | – | – | – | – | – | – | – | – | – | – | – | – | – | pest or weed control at 250 g/ha (Solanum nigrum (SOLNI) [1]; dose 250 g/ha): 30%; pest or weed control at 250 g/ha ([2]; dose 250 g/ha): 10%; pest or weed control at 250 g/ha ([3]; dose 250 g/ha): 0%; pest or weed control at 250 g/ha (Setaria faberi (SETFA) [4]; dose 250 g/ha): 0%; pest or weed control at 250 g/ha ([5]; dose 250 g/ha): 0%; pest or weed control at 250 g/ha ([6]; dose 250 g/ha): 0%; pest or weed control at 250 g/ha (Solanum nigrum (SOLNI) [7]; dose 250 g/ha): 80%; pest or weed control at 250 g/ha ([8]; dose 250 g/ha): 30%; pest or weed control at 250 g/ha ([9]; dose 250 g/ha): 40%; pest or weed control at 250 g/ha (Setaria faberi (SETFA) [10]; dose 250 g/ha): 0%; pest or weed control at 250 g/ha ([11]; dose 250 g/ha): 0%; pest or weed control at 250 g/ha ([12]; dose 250 g/ha): 0%
C=Cc1c(N)nc(-c2ccc(C(=O)OC)cc2)nc1C(=O)OC [Compound 69-61, 4-Amino-5-ethenyl-6-methoxycarbonyl-2-(4-methoxycarbonyl-phenyl)-pyrimidine] | 0% | 0% | 0% | 0% | 0% | 0% | 20% | 0% | 30% | 0% | 0% | 0% | – | –
C=Cc1c(N)nc(-c2ccc3c(c2)OCO3)nc1C(=O)OC [Compound 70-61, 4-Amino-5-ethenyl-6-methoxycarbonyl-2-(3,4-methylenedioxy-phenyl)-pyrimidine] | 100% | 100% | 80% | 70% | 90% | 80% | 90% | 100% | 80% | 40% | 100% | 100% | – | –
C=Cc1c(N)nc(-c2ccc3c(c2)OCCO3)nc1C(=O)OC [Compound 71-61, 4-Amino-5-ethenyl-2-(3,4-ethylenedioxy-phenyl)-6-methoxycarbonyl-pyrimidine] | 40% | 0% | 0% | 0% | 20% | 10% | 60% | 20% | 40% | 0% | 30% | 0% | – | –
C=Cc1c(N)nc(-c2ccc(SC)cc2)nc1C(=O)OC [Compound 72-61, 4-Amino-5-ethenyl-6-methoxycarbonyl-2-(4-methylthiophenyl)-pyrimidine] | 50% | 60% | 70% | 0% | 0% | 0% | 60% | 10% | 50% | 0% | 0% | 10% | – | –
C=Cc1c(N)nc(-c2ccc3ccccc3c2)nc1C(=O)OC [Compound 73-61, 4-Amino-5-ethenyl-6-methoxycarbonyl-2-(2-naphthyl)-pyrimidine] | 0% | 0% | 0% | 0% | 0% | 0% | 30% | 20% | 0% | 0% | 0% | 0% | – | –
